Assay results published in patent US10160729B2, “Hsp70 modulators and methods for making and using the same” (Memorial Sloan Kettering Cancer Center, priority 2014, dated 2018).
pEC50: −log10 of the molar value.

Legend:
MOLM-13 cells = assay: Caspase cleavage assay (Caspase3, 7 activation); type: cell-based; conditions: Homo sapiens, 16 h treatment, caspase substrate Z-DEVD-R110, read-out: c* Concentration at which 50% of the maximum signal was achieved (caspase activation)
In short: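 Cells (30,000/well, RPMI) treated 16 h with compound or DMSO in triplicate, then given buffer with 10 mM HEPES pH 7.5, 2 mM EDTA, 0.1% CHAPS and 25 μM Z-DEVD-R110. Fluorescence read once signal stabilized; results given as percentage increase in apoptotic cells versus DMSO-treated control.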

[1] = tested on: MDA-MB-468 triple negative breast cancer cells; assay: Western blot of anti-apoptotic protein complexes; type: cell-based; conditions: FIG. 1A, MDA-MB-468 cells, 24 h
Description: (§1) Cell lines: MDA-MB-468 cells were obtained from the American Type Culture Collection. DLBCL cells were described in Cerchietti L C, et al. BCL6 repression of EP300 in human diffuse large B cell lymphoma cells provides a basis for rational combinatorial therapy. J Clin Invest. Dec. 1, 2010; 120(12): 4569-4582; and Cerchietti L C, et al. A purine scaffold Hsp90 inhibitor destabilizes BCL-6 and has specific antitumor activity in BCL-6-dependent B cell lymphomas. Nat Med. 2009 December; 15(12):1369-76. MDA-MB-468 cells were grown in DME/F12 with 10% FBS and 1% penicillin and streptomycin. OCI-LY1R cells were developed by continuous incubation of OCI-LY1 cells with suboptimal concentrations of PU-H71 (depicted below) with subsequent selection of resistant clones. OCI-LY1, OCI-LY1R and OCI-LY7 cells were cultured in IMDM supplemented with 20% FBS, 1% glutamax and 1% penicillin and streptomycin. OCI-LY3, FARAGE, HBL1, Karpas422, MD901, U2932, SU-DHL4, SU-DHL6, RCK8 and TMD8 cells were grown in RPMI with 10% FBS, 1% glutamax and 1% penicillin and streptomycin.
Western blot: Cells were plated and treated next day with indicated drug concentrations for 24h. […] The chemiluminescent signal was detected using the Enhanced Chemiluminescence Detection System (Amersham Biosciences) according to the manufacturer's instructions.

[2] = tested on: diffuse large B-cell lymphoma (DLBCL) cells; assay: Growth inhibition (CellTiter-Glo) in DLBCL cells, including cells with induced resistance to PU-H71; type: cell-based, human; conditions: for Spectrum of sensitive DLBCLs: FIG. 1C, PU-H71-sensitive versus compound 32-sensitive DLBCL lines
Description: as §1
Growth inhibition: 5,000 cells per well were plated in black 96-well microtiter plates and treated next day with indicated compounds at 1/2 serial dilutions. The plate was incubated for 72h after which growth was measured using the CellTiter-Glo Luminescent Cell Viability Assay (Promega) according to manufacture's instructions. The percentage cell growth inhibition was calculated by comparing luminescence readings obtained from treated versus control cells, accounting for initial cell population. The luminescence signal in each well was measured using the Analyst GT microplate reader (Molecular Devices).

Compound | pEC50 (MOLM-13 cells) | other results
CN1CCN(c2ncc(Sc3ccc(N)nc3)c(OCc3ccccc3)n2)CC1 [compound 32, 5-((4-(Benzyloxy)-2-(4-methylpiperazin-1-yl)pyrimidin-5-yl)thio)pyridin-2-amine] | 6.40 to 6.70 | Effect on Hsp70-regulated anti-apoptotic protein complexes [1]: effects reverted; Activity in DLBCL cells with induced resistance to PU-H71 ([2]; FIG. 1B, DLBCL cells with induced resistance to Hsp90 inhibitor PU-H71): retains activity; Spectrum of sensitive DLBCLs [2]: does not overlap
CN1CCN(c2ncc(Oc3ccc(C(N)=O)cc3)c(OCc3cccc(N(C)C)c3)n2)CC1 [compound 284, 4-((4-((3-(Dimethylamino)benzyl)oxy)-2-(4-methylpiperazin-1-yl)pyrimidin-5-yl)oxy)benzamide] | 6.00 to 6.40 | –
CN1CCN(c2ncc(Sc3ccc(C(N)=O)cc3)c(OCc3cccc(N=[N+]=[N-])c3)n2)CC1 [compound 101, 4-((4-((3-Azidobenzyl)oxy)-2-(4-methylpiperazin-1-yl)pyrimidin-5-yl)thio)benzamide] | > 6.70 | –
CN1CCN(c2ncc(Sc3ccc(C(N)=O)c(C(F)(F)F)c3)c(OCc3ccc(F)cc3F)n2)CC1 [compound 135, 4-((4-((2,4-Difluorobenzyl)oxy)-2-(4-methylpiperazin-1-yl)pyrimidin-5-yl)thio)-2-(trifluoromethyl)benzamide] | 6.40 to 6.70 | –
COc1cccc(COc2nc(N3CCN(C4COC4)CC3)ncc2Sc2ccc(C(N)=O)cc2)c1 [190r, 4-((4-((3-Methoxybenzyl)oxy)-2-(4-(oxetan-3-yl)piperazin-1-yl)pyrimidin-5-yl)thio)benzamide] | 6.40 to 6.70 | –
NC(=O)c1ccc(Sc2cnc(N3CCN(C4CC4)CC3)nc2OCc2cccc(Cl)c2)cc1C(F)(F)F [compound 227, 4-((4-((3-Chlorobenzyl)oxy)-2-(4-cyclopropylpiperazin-1-yl)pyrimidin-5-yl)thio)-2-(trifluoromethyl)benzamide] | ≤ 5.92 | –
C#CCN1CCN(c2ncc(Sc3ccc(C(N)=O)c(C(F)(F)F)c3)c(OCc3cccc(N(C)C)c3)n2)CC1 [compound 339, 4-((4-((3-(Dimethylamino)benzyl)oxy)-2-(4-(prop-2-yn-1-yl)piperazin-1-yl)pyrimidin-5-yl)thio)-2-(trifluoromethyl)benzamide] | 6.00 to 6.40 | –
[2H]c1c([2H])c([2H])c(COc2nc(N3CCN(C)CC3)ncc2Sc2ccc(C(N)=O)cc2)c([2H])c1[2H] [100t, 4-((4-(Benzyloxy-d5)-2-(4-methylpiperazin-1-yl)pyrimidin-5-yl)thio)benzamide] | 6.00 to 6.40 | –
CN1CCN(c2ncc(Sc3ccc(N)nc3)c(OCc3cccc(C#N)c3)n2)CC1 [compound 152, 3-(((5-((6-Aminopyridin-3-yl)thio)-2-(4-methylpiperazin-1-yl)pyrimidin-4-yl)oxy)methyl)benzonitrile] | 6.40 to 6.70 | –
CN(C)[C@H]1CCN(c2ncc(Sc3ccc(C(N)=O)cc3)c(OCc3ccccc3)n2)C1 [179c, (S)-4-((4-(Benzyloxy)-2-(3-(dimethylamino)pyrrolidin-1-yl)pyrimidin-5-yl)thio)benzamide] | ≤ 5.92 | –
CN1CCN(c2ncc(Sc3ccc(C(N)=O)c(Cl)c3)c(OCc3ccc(F)c(Br)c3)n2)CC1 [compound 114, 4-((4-((3-Bromo-4-fluorobenzyl)oxy)-2-(4-methylpiperazin-1-yl)pyrimidin-5-yl)thio)-2-chlorobenzamide] | > 6.70 | –
CC(C)NCCCn1c(Sc2cc3c(cc2I)OCO3)nc2c(N)ncnc21 [PU-H71, reference compound] | – | Spectrum of sensitive DLBCLs [2]: does not overlap
NC(=O)c1ccc(Sc2cnc(N3CCN(Cc4nccs4)CC3)nc2OCc2cccc(Cl)c2)cc1C(F)(F)F [compound 229, 4-((4-((3-Chlorobenzyl)oxy)-2-(4-(thiazol-2-ylmethyl)piperazin-1-yl)pyrimidin-5-yl)thio)-2-(trifluoromethyl)benzamide] | 6.40 to 6.70 | –
COc1ccc(F)c(COc2nc(N3CCN(C)CC3)ncc2Sc2ccc(C(N)=O)c(C(F)(F)F)c2)c1 [compound 138, 4-((4-((2-Fluoro-5-methoxybenzyl)oxy)-2-(4-methylpiperazin-1-yl)pyrimidin-5-yl)thio)-2-(trifluoromethyl)benzamide] | > 6.70 | –
C[C@@H](Oc1nc(N2CCN(C)CC2)ncc1Sc1ccc(C(N)=O)cc1)c1ccc(F)cc1 [100o, (R)-4-((4-(1-(4-Fluorophenyl)ethoxy)-2-(4-methylpiperazin-1-yl)pyrimidin-5-yl)thio)benzamide] | ≤ 5.92 | –
CN1CCN(c2ncc(Sc3ccc(O)cc3)c(OCc3ccccc3)n2)CC1 [compound 37, 4-((4-(Benzyloxy)-2-(4-methylpiperazin-1-yl)pyrimidin-5-yl)thio)phenol] | 6.00 to 6.40 | –
CN(C)c1cccc(COc2nc(N3CCOCC3)ncc2Sc2ccc(C(N)=O)cc2)c1 [185a, 4-((4-((3-(Dimethylamino)benzyl)oxy)-2-morpholinopyrimidin-5-yl)thio)benzamide] | 5.92 to 6.00 | –
CN1CCN(c2ncc(Sc3ccc(NC(=O)CN)cc3)c(OCc3ccccc3)n2)CC1 [compound 58, 2-Amino-N-(4-((4-(benzyloxy)-2-(4-methylpiperazin-1-yl)pyrimidin-5-yl)thio)phenyl)acetamide] | 6.00 to 6.40 | –
CN1CCN(c2ncc(Cc3ccc(C(N)=O)cc3)c(OCc3ccccc3)n2)CC1 [compound 299, 4-((4-(Benzyloxy)-2-(4-methylpiperazin-1-yl)pyrimidin-5-yl)methyl)benzamide] | 6.40 to 6.70 | –
CN(C)[C@@H]1CCN(c2ncc(Sc3ccc(N)nc3)c(OCc3cccc(Cl)c3)n2)C1 [compound 376, (R)-5-((4-((3-Chlorobenzyl)oxy)-2-(3-(dimethylamino)pyrrolidin-1-yl)pyrimidin-5-yl)thio)pyridin-2-amine] | > 6.70 | –
COc1cccc(COc2nc(N3CCN(Cc4nccs4)CC3)ncc2Sc2ccc(C(N)=O)cc2)c1 [190v, 4-((4-((3-Methoxybenzyl)oxy)-2-(4-(thiazol-2-ylmethyl)piperazin-1-yl)pyrimidin-5-yl)thio)benzamide] | > 6.70 | –
